In patent US10961253B2, “Positive allosteric modulators of the muscarinic acetylcholine receptor M4” (Vanderbilt University, priority 2016, dated 2021):

What was measured:
[1] = target: T1, Human M4 (Homo sapiens, UniProt P08173); test: mAChR M4 cell-based functional assay (calcium flux, potentiation of EC20 acetylcholine response); set-up: Emax: dose or concentration left out as unconfirmed; conditions: for Emax: CHO-K1
T1 sequence (P08173 1-479): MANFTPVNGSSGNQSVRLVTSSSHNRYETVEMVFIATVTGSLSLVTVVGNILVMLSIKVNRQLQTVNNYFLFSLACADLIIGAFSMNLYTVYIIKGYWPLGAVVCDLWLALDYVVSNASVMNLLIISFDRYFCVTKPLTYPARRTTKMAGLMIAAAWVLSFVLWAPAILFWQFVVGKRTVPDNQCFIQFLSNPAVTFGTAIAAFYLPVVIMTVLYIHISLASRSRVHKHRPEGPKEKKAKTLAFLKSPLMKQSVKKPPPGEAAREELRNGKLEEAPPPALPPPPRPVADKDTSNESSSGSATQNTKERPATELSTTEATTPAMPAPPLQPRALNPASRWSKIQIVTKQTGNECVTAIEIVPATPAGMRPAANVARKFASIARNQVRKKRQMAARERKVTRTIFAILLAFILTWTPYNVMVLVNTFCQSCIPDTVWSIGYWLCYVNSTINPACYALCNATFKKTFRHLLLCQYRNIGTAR

[2] = human, in vivo; cited from earlier work
[3] = Alzheimer's disease patients; delusions, suspiciousness, vocal outbursts, hallucinations; cited from earlier work
[4] = similar profiles to known antipsychotic drugs, without causing catalepsy; cited from earlier work

Row | SMILES | EC50 [1] [nM] | Emax [1] [%] | elevated liver transaminases (hepatotoxicity), share of patients [2] | effect on psychotic behavioral symptoms [3] | activity in animal models [4]
1 | Cc1cc(C)c2c(n1)sc1c(C3CCOCC3)ncnc12 [Compound 1, 7,9-Dimethyl-4-(tetrahydro-2H-pyran-4-yl)pyrido[3′,2′:4,5]thieno[3,2-d]pyrimidine] | 150 | 98.8 |  |  | 
2 | C/C=C/c1ncnc2c1sc1nc(C)cc(C)c12 [Compound 2, (E)-7,9-dimethyl-4-(prop-1-en-1-yl)pyrido[3′,2′:4,5]thieno[3,2-d]pyrimidine; 2,2,2-trifluoroacetic acid] | > 10000 | 55.3 |  |  | 
3 | Cc1cc(C)c2c(n1)sc1c(-c3nccs3)ncnc12 [Compound 3, 7,9-dimethyl-4-(thiazol-2-yl)pyrido[3′,2′:4,5]thieno[3,2-d]pyrimidine; 2,2,2-trifluoroacetic acid] | 3400 | 62.2 |  |  | 
4 | Cc1cc(C)c2c(n1)sc1c(C)ncnc12 [Compound 4, 4,7,9-trimethylpyrido[3′,2′:4,5]thieno[3,2-d]pyrimidine] | 2800 | 58.1 |  |  | 
5 | Cc1cc(C)c2c(n1)sc1c(C3CC3)ncnc12 [Compound 5, 4-cyclopropyl-7,9-dimethylpyrido[3′,2′:4,5]thieno[3,2-d]pyrimidine] | 3900 | 61.5 |  |  | 
6 | CCc1ncnc2c1sc1nc(C)cc(C)c12 [Compound 6, 4-ethyl-7,9-dimethylpyrido[3′,2′:4,5]thieno[3,2-d]pyrimidine] | 2900 | 59.1 |  |  | 
7 | Cc1cc(C)c2c(n1)sc1c(C3CCN(C=O)CC3)ncnc12 [Compound 7, 4-(7,9-dimethylpyrido[3′,2′:4,5]thieno[3,2-d]pyrimidin-4-yl)piperidine-1-carbaldehyde] | 480 | 65.6 |  |  | 
8 | Cc1cc(C)c2c(n1)sc1c(C3CCCC3)ncnc12 [Compound 8, 4-cyclopentyl-7,9-dimethylpyrido[3′,2′:4,5]thieno[3,2-d]pyrimidine] | > 10000 | 70.9 |  |  | 
9 | Cc1cc(C)c2c(n1)sc1c(C3CCCCC3)ncnc12 [Compound 9, 4-cyclohexyl-7,9-dimethylpyrido[3′,2′:4,5]thieno[3,2-d]pyrimidine] | 6800 | 70.8 |  |  | 
10 | Cc1cc(C)c2c(n1)sc1c(C3CCNCC3)ncnc12 [Compound 10, 7,9-dimethyl-4-(piperidin-4-yl)pyrido[3′,2′:4,5]thieno[3,2-d]pyrimidine] | 6100 | 98.8 |  |  | 
11 | Cc1cc(C)c2c(n1)sc1c(C3CCN(C(=O)C4CC4)CC3)ncnc12 [Compound 11, cyclopropyl(4-(7,9-dimethylpyrido[3′,2′:4,5]thieno[3,2-d]pyrimidin-4-yl)piperidin-1-yl)methanone] | 620 | 43.5 |  |  | 
12 | Cc1cc(C)c2c(n1)sc1c(C3CCN(C(=O)C4(F)CC4)CC3)ncnc12 [Compound 12, (4-(7,9-dimethylpyrido[3′,2′:4,5]thieno[3,2-d]pyrimidin-4-yl)piperidin-1-yl)(1-fluorocyclopropyl)methanone] | 820 | 62 |  |  | 
13 | Cc1cc(C)c2c(n1)sc1c(C3CCN(C(=O)C4(C)CC4)CC3)ncnc12 [Compound 13, (4-(7,9-dimethylpyrido[3′,2′:4,5]thieno[3,2-d]pyrimidin-4-yl)piperidin-1-yl)(1-methylcyclopropyl)methanone] | 230 | 63 |  |  | 
14 | Cc1cc(C)c2c(n1)sc1c(C3CCN(C(=O)C4CCC4)CC3)ncnc12 [Compound 14, cyclobutyl(4-(7,9-dimethylpyrido[3′,2′:4,5]thieno[3,2-d]pyrimidin-4-yl)piperidin-1-yl)methanone] | 520 | 72.3 |  |  | 
15 | Cc1cc(C)c2c(n1)sc1c(C3CCN(C(=O)C4CCCO4)CC3)ncnc12 (stereo not shown) [Compound 15, (4-(7,9-dimethylpyrido[3′,2′:4,5]thieno[3,2-d]pyrimidin-4-yl)piperidin-1-yl)(tetrahydrofuran-2-yl)methanone] | 1000 | 44 |  |  | 
16 | Cc1nnc2sc3c(C4CCCCC4)ncnc3c2c1C [Compound 16, 8-cyclohexyl-3,4-dimethylpyrimido[4′,5′:4,5]thieno[2,3-c]pyridazine] | 52 | 72.6 |  |  | 

Row | SMILES | EC50 [1] [nM] | Emax [1] [%] | elevated liver transaminases (hepatotoxicity), share of patients [2] | effect on psychotic behavioral symptoms [3] | activity in animal models [4]
17 | Cc1nnc2sc3c(C4CC4)ncnc3c2c1C [Compound 17, 8-cyclopropyl-3,4-dimethylpyrimido[4′,5′:4,5]thieno[2,3-c]pyridazine] | 140 | 73.5 |  |  | 
18 | Cc1nnc2sc3c(C4CCOCC4)ncnc3c2c1C [Compound 18, 3,4-dimethyl-8-(tetrahydro-2H-pyran-4-yl)pyrimido[4′,5′:4,5]thieno[2,3-c]pyridazine] |  | 74.6 |  |  | 
19 | Cc1nnc2sc3c(C4CCNCC4)ncnc3c2c1C [Compound 19, 3,4-dimethyl-8-(piperidin-4-yl)pyrimido[4′,5′:4,5]thieno[2,3-c]pyridazine] | 4300 | 33.8 |  |  | 
20 | Cc1nnc2sc3c(C4CCN(C(=O)C5(F)CC5)CC4)ncnc3c2c1C [Compound 20, (4-(3,4-dimethylpyrimido[4′,5′:4,5]thieno[2,3-c]pyridazin-8-yl)piperidin-1-yl)(1-fluorocyclopropyl)methanone] | 490 | 39.1 |  |  | 
21 | Cc1cc(C)c2c(n1)sc1c(C3CCN(C4COC4)CC3)ncnc12 [Compound 21, 7,9-dimethyl-4-(1-(oxetan-3-yl)piperidin-4-yl)pyrido[3′,2′:4,5]thieno[3,2-d]pyrimidine] | 1600 | 41.8 |  |  | 
22 | Cc1nnc2sc3c(C4CC(F)(F)C4)ncnc3c2c1C [Compound 22, 8-(3,3-difluorocyclobutyl)-3,4-dimethylpyrimido[4′,5′:4,5]thieno[2,3-c]pyridazine] |  | 72.1 |  |  | 
23 | Cc1nnc2sc3c(C4CCCN(C=O)C4)ncnc3c2c1C (stereo not shown) [Compound 23, 3-(3,4-dimethylpyrimido[4′,5′:4,5]thieno[2,3-c]pyridazin-8-yl)piperidine-1-carbaldehyde] | 510 | 67 |  |  | 
24 | Cc1nnc2sc3c(CCC4CCCCO4)ncnc3c2c1C (stereo not shown) [Compound 24, 3,4-dimethyl-8-(2-(tetrahydro-2H-pyran-2-yl)ethyl)pyrimido[4′,5′:4,5]thieno[2,3-c]pyridazine] | 280 | 59.8 |  |  | 
25 | Cc1nnc2sc3c(C4CCC(F)(F)CC4)ncnc3c2c1C [Compound 25, 8-(4,4-difluorocyclohexyl)-3,4-dimethylpyrimido[4′,5′:4,5]thieno[2,3-c]pyridazine] | 45 | 96.3 |  |  | 
26 | Cc1nnc2sc3c(C4CCN(C(=O)C5CC5)CC4)ncnc3c2c1C [Compound 26, cyclopropyl(4-(3,4-dimethylpyrimido[4′,5′:4,5]thieno[2,3-c]pyridazin-8-yl)piperidin-1-yl)methanone] | 410 | 36.5 |  |  | 
27 | Cc1nnc2sc3c(C4CCN(C(=O)C5CCCO5)CC4)ncnc3c2c1C (stereo not shown) [Compound 27, (4-(3,4-dimethylpyrimido[4′,5′:4,5]thieno[2,3-c]pyridazin-8-yl)piperidin-1-yl)(tetrahydrofuran-2-yl)methanone] | 1900 | 58.2 |  |  | 
28 | Cc1nnc2sc3c(CC(C)(C)C)ncnc3c2c1C [Compound 28, 3,4-dimethyl-8-neopentylpyrimido[4′,5′:4,5]thieno[2,3-c]pyridazine] |  | 75.6 |  |  | 
29 | CCCCc1ncnc2c1sc1nnc(C)c(C)c12 [Compound 29, 8-butyl-3,4-dimethylpyrimido[4′,5′:4,5]thieno[2,3-c]pyridazine] | 540 | 93.4 |  |  | 
30 | Nc1c2c(nc3ccccc13)CCCC2 [tacrine] |  |  | about 30% |  | 
31 | CCCCCCOc1nsnc1C1=CCCN(C)C1 [xanomeline] |  |  |  | reduce psychotic behavioral symptoms | active in animal models
